Data published in paper PMC12612990, “PNA5, a glycosylated angiotensin-(1−7) mas receptor agonist for vascular dementia: A two species toxicology and toxicokinetic study” (Toxicology Reports, 2025).
Peptide text beside a SMILES is read from it. * marks the point of attachment. βGlc = OC[C@H]1O[C@@H](*)[C@H](O)[C@@H](O)[C@@H]1O

Tests used:
[1] = Toxicokinetics of PNA5 in Sprague Dawley rat plasma; settings: for AUC(0-t) / Cmax / half-life / Tmax: both, Sprague Dawley, rat, sc; for AUC(0-t) / Cmax / half-life / Tmax / Kel: plasma; for AUC(0-t): AUC0–2, rats, n = 6, linear trapezoidal; for AUC(0-t) / Cmax / half-life / Kel: mean ± SD; for Cmax: Sprague Dawley rats, n = 6, UHPLC-MS/MS, noncompartmental; for half-life: n = 6, Ln(2)/Kel; for AUC0–2hr averaged accumulation ratio: day 1 to day 28, sexes combined; for F:M AUC0–2hr ratio: printed as on day 1; for fold increase in AUC0–2hr for a 40-fold increase in dose / fold increase in Cmax for a 40-fold increase in dose: 1 to 40 mg/kg/day; for Kel: n = 6, exponential regression
Protocol: (§1) Toxicokinetic (TK) of PNA5 was obtained from plasma following a single and repeated subcutaneous injection administration of PNA5 once daily for 28 days. Blood samples were collected on days 1 and 28 at the following time points: pre-dose and at approximately 5, 15, 30, 60, and 120 min post-dose (equivalent to 0.083, 0.25, 0.5, 1, and 2 h).
(§2) For the rat study, a total of 6 rats for each sex were assigned randomly to treatment groups 2–4 (those treated with PNA5). Three rats per sex were assigned to group 1 (vehicle control). Rats were sampled in satellite groups; rats' blood was taken at alternating time points, resulting in a total n = 3 per time point for six animals. For the dog study, three animals per sex were assigned to group 2 and group 3, and five animals per sex were assigned to group 1 and group 4. Blood was collected from canines via venipuncture.
(§3) Blood was collected in heparinized tubes containing a protease inhibitor cocktail consisting of 4 mM 0-phenanthroline, 1.2 mM pepstatin A, and 0.5 M EDTA. Blood samples were centrifuged for 15 min at 2500 x g at room temperature. Plasma was transferred into pre-cooled, pre-labeled collection tubes, frozen immediately in liquid nitrogen/dry ice, and stored at −80 °C until analysis.
(§4) PNA5 levels were analyzed using ultra-high performance liquid chromatography (UHPLC) with tandem mass spectrometric (MS/MS) detection. Precision and accuracy, reproducibility, selectivity, carryover, recovery, matrix effects, dilution integrity, hemolysis, stock stability, and matrix stability were assessed prior to initiation of the validation. Samples (5 µL) were injected onto the column and separated using gradient elution. Target compounds were quantified by summing the height of previously identified fragment peaks in the LC-MS [3] spectra. The serum concentrations were estimated using a calibration curve, accounting for the dilution factors and the probe recoveries for each experiment. Standards were matrix-matched to samples and underwent the same sample preparation steps.
(§5) A noncompartmental analysis was used for parameter estimation. For PNA5 in plasma, the extravascular model was used for parameter estimation. For the rat study, all parameters were generated from PNA5 individual concentrations in plasma from days 1 and 28. Parameters were estimated using nominal dose levels and nominal sampling times relative to the dose administration. Plasma concentration values obtained at the pre-dose time point were used as the concentration at time 0 on days 1 and 28. For the dog study, all parameters were generated from PNA5 individual concentrations in plasma from days 1 and 28. Parameters were estimated using nominal dose levels and nominal sampling times relative to dose administration. Plasma concentration values obtained at the pre-dose time point were used as the concentration at time 0 on days 1 and 28. For Beagle dogs, concentration values reported as below the limit of quantitation (< 5 ng/mL) were assigned a value of 0.
(§6) The toxicokinetic parameters evaluated included the area under the curve of the plasma PNA5 concentration against time from time 0 (pre-dose) to 2 h (post-dose) (AUC0–2hr), the maximum plasma concentration (Cmax), time to maximum plasma concentration (Tmax), elimination rate (Kel), and the half-life. The area under the concentration vs. time curve was calculated using the linear trapezoidal method with linear interpolation for all profiles with at least three consecutive quantifiable concentrations. Kel was calculated from the slope using exponential regression of concentration versus time (Excel); exponential interpolations for all profiles include at least three concentrations plotted against time. Time 0 values and all concentrations listed as zero were excluded from Kel calculations. The half-life was calculated from Kel via the following equation: half-life Ln(2)/Kel.

[2] = Stability of dosing formulations; type: physicochemical; settings: solutions in 0.9 % sodium chloride, 0.1 mg/mL and 10 mg/mL
Protocol: The analyzed dosing formulations were within the protocol-specified range of target concentrations for solutions and were stable at 0.1 mg/mL and 10 mg/mL following 24 h of room temperature storage and following 9 days of refrigerated storage.
The analyzed dosing formulations contained 95.5–108.7 % of the test article, which was within the protocol-specified range of target concentrations for solutions (90–110 %), and were stable at 0.1 mg/mL and 10 mg/mL following 24 h of room temperature storage and following 9 days of refrigerated storage. The test article was not detected in the analyzed vehicle formulation that was administered to the control groups.

[3] = Toxicokinetics of PNA5 in Beagle dog plasma; settings: both, Beagle, dog, plasma, sc, 1 mg/kg/day, plasma, day 1, sexes combined, mean ± SD
Protocol: as §1, §2, §3, §4, §5, §6

## CC[C@H](C)[C@H](NC(=O)[C@H](Cc1ccc(O)cc1)NC(=O)[C@@H](NC(=O)[C@H](CCCNC(=N)N)NC(=O)[C@@H](N)CC(=O)O)C(C)C)C(=O)N[C@@H](Cc1c[nH]cn1)C(=O)N[C@@H](CO[C@@H]1O[C@H](CO)[C@@H](O)[C@H](O)[C@H]1O)C(N)=O [PNA5, Ang-1–6-Ser-O-Glu-NH2] (H-DRVYIHS(βGlc)-NH2)
[1]; 1 mg/kg/day, s.c. 1 mg/kg/day, day 1, sexes combined
  AUC(0-t): 0.263 ± 0.0315 ng·h/mL
[1]; 1 mg/kg/day, s.c. 1 mg/kg/day, day 28, sexes combined
  AUC(0-t): 0.464 ± 0.0741 ng·h/mL
[1]; 1 mg/kg/day, s.c. once daily 1 mg/kg/day, day 1, sexes combined
  Cmax: 0.591 ± 0.25 ng/mL
[1]; 1 mg/kg/day, s.c. once daily 1 mg/kg/day, day 28, sexes combined
  Cmax: 0.968 ± 0.28 ng/mL
[1]; 1 mg/kg/day, rats, s.c. 1 mg/kg/day, day 1, sexes combined
  half-life: 36 ± 6 min
[1]; 1 mg/kg/day, rats, s.c. 1 mg/kg/day, day 28, sexes combined
  half-life: 30.6 ± 9 min
[1]; 1 mg/kg/day, rats, s.c. 1 mg/kg/day, day 1, sexes combined, average (range lowest to highest)
  Tmax: 6.6 min
[1]; 1 mg/kg/day, rats, s.c. 1 mg/kg/day, day 28, sexes combined, average (range lowest to highest)
  Tmax: 10.2 min
[1]; 5 mg/kg/day, s.c. 5 mg/kg/day, day 1, sexes combined
  AUC(0-t): 1.55 ± 0.789 ng·h/mL
[1]; 5 mg/kg/day, s.c. 5 mg/kg/day, day 28, sexes combined
  AUC(0-t): 2.86 ± 1.72 ng·h/mL
[1]; 5 mg/kg/day, s.c. once daily 5 mg/kg/day, day 1, sexes combined
  Cmax: 3.37 ± 1.99 ng/mL
[1]; 5 mg/kg/day, s.c. once daily 5 mg/kg/day, day 28, sexes combined
  Cmax: 5.35 ± 2.77 ng/mL
[1]; 5 mg/kg/day, rats, s.c. 5 mg/kg/day, day 1, sexes combined
  half-life: 25.2 ± 7.8 min
[1]; 5 mg/kg/day, rats, s.c. 5 mg/kg/day, day 28, sexes combined
  half-life: 22.2 ± 7.8 min
[1]; 5 mg/kg/day, rats, s.c. 5 mg/kg/day, day 1, sexes combined, average
  Tmax: 4.98 min
[1]; 5 mg/kg/day, rats, s.c. 5 mg/kg/day, day 28, sexes combined, average (range lowest to highest)
  Tmax: 11.4 min
[1]; 40 mg/kg/day, s.c. 40 mg/kg/day, day 1, sexes combined
  AUC(0-t): 16.1 ng·h/mL
[1]; 40 mg/kg/day, s.c. 40 mg/kg/day, day 28, sexes combined
  AUC(0-t): 29.6 ng·h/mL
[1]; 40 mg/kg/day, s.c. once daily 40 mg/kg/day, day 1, sexes combined
  Cmax: 40.8 ng/mL
[1]; 40 mg/kg/day, s.c. once daily 40 mg/kg/day, day 28, sexes combined
  Cmax: 62.5 ng/mL
[1]; 40 mg/kg/day, rats, s.c. 40 mg/kg/day, day 1, sexes combined
  half-life: 19.8 ± 4.8 min
[1]; 40 mg/kg/day, rats, s.c. 40 mg/kg/day, day 28, sexes combined
  half-life: 23.4 ± 3.6 min
[1]; 40 mg/kg/day, rats, s.c. 40 mg/kg/day, day 1, sexes combined, average (range lowest to highest)
  Tmax: 8.4 min
[1]; 40 mg/kg/day, rats, s.c. 40 mg/kg/day, day 28, sexes combined, average (range lowest to highest)
  Tmax: 10.2 min
[1]; rats, 1 mg/kg/day
  AUC0–2hr averaged accumulation ratio: 1.76
[1]; rats, 5 mg/kg/day
  F:M AUC0–2hr ratio: 0.66–1.58
[1]; rats, 40 mg/kg/day
  AUC0–2hr averaged accumulation ratio: 1.84
  F:M AUC0–2hr ratio: 1.16–1.32
[1]; rats, day 1, sexes combined
  fold increase in AUC0–2hr for a 40-fold increase in dose: ~61.22 fold
  fold increase in Cmax for a 40-fold increase in dose: ~69.09 fold
[1]; rats, day 28, sexes combined
  fold increase in AUC0–2hr for a 40-fold increase in dose: ~63.93 fold
  fold increase in Cmax for a 40-fold increase in dose: ~64.56 fold
[1]; rats, day 28, range across doses
  F:M Cmax ratios: 1.24 – 1.37
[1]; rats, s.c. 1 mg/kg/day, day 1, sexes combined
  Kel: 1.18 ± 0.18, 6 hr–1
[1]; rats, s.c. 5 mg/kg/day, day 1, sexes combined
  Kel: 1.79 ± 0.67, 6 hr–1
[1]; rats, s.c. 5 mg/kg/day, day 28, sexes combined
  Kel: 2.08 ± 0.86, 6 hr–1
[1]; rats, s.c. 40 mg/kg/day, day 1, sexes combined
  Kel: 2.24 ± 0.83, 6 hr–1
[1]; rats, s.c. 40 mg/kg/day, day 28, sexes combined
  Kel: 1.82 ± 0.28, 6 hr–1
[1]; rats, s.c. 1, 5 or 40 mg/kg/day, day 1 and day 28, last sampling time 2 h
  time post-dose up to which PNA5 plasma concentrations were quantifiable: up to 2 h
[2]; 24 h of room temperature storage
  stability of dosing formulations: stable
[2]; 9 days of refrigerated storage
  stability of dosing formulations: stable
[3]; AUC0–2, dogs, s.c. 1 mg/kg/day, n = 6, linear trapezoidal
  AUC(0-t): 63.5 ± 14.8 ng·h/mL
[3]; Cmax, Beagle dogs, s.c. once daily 1 mg/kg/day, n = 6, UHPLC-MS/MS, noncompartmental
  Cmax: 110 ± 37.3 ng/mL
